Target: PDEV (Oryctolagus cuniculus, UniProt G1SX67)
Assay: Cyclic nucleotide phosphodiesterase (PDE) assay, inhibition of PDEV isolated from rabbit tissue
Assay type: biochemical
Settings: 10 μM test compound; rabbit PDEV
Method: Briefly, rabbit or human tissues were homogenized in an ice-cold buffer solution containing 20 mM HEPES (pH 7.2), 0.25M sucrose, 1 mM EDTA, and 1 mM phenylmethylsulphonyl fluoride (PMSF). The homogenates were centrifuged at 100,000 g for 60 minutes at 4° C. The supernatant was filtered through […] filter and loaded on a Pharmacia Mono Q anion exchange column (1 ml bed volume) that was equilibrated with 20 mM HEPES, 1 mM EDTA and 0.5 mM PMSF. […] The fractions comprising various PDE activities were pooled separately and used in later studies.
The assays were adapted to a 96-well format. The enzyme was assayed in 5 mM MgCl2, 15 mM Tris HCl (pH 7.4), 0.5 mg/ml bovine serum albumin, 1 μM cGMP or cAMP, 0.1 μCi [^3H]-cGMP or [^3H]-cAMP, and 2-10 μl of column elution. The total volume of the assay was 100 μl. The reaction mixture was incubated at 30° C. for 30 minutes. The reaction was stopped by boiling for 1 minute and then cooled down on ice. The resulting [^3H] 5′-mononucleotides were further converted to uncharged [^3H]-nucleosides by adding 25 μl 1 mg/ml snake venom (Ophiophagus hannah) and incubating at 30° C. for 10 minute. The reaction was stopped by the addition of 1 ml Bio-Rad AG1-X2 resin slurry (1:3). All the charged nucleotides were bound by the resin and only the uncharged [^3H]-nucleosides remained in the supernatant after centrifuging. An aliquot of 200 μl was taken and counted by liquid scintillation. PDE activity was expressed as pmol cyclic nucleotide hydrolyzed/min/ml of enzyme preparation.
Inhibitor studies were carried out in assay buffer with a final concentration of 10% DMSO.

## Cc1oc(-c2ccccc2)cc1C(=O)N1CCc2c([nH]c3ccccc23)C1c1ccc2c(c1)OCO2 (racemic) [Cmpd 104]
  % Inh @ 10 μM (rabbit): 72%

## O=C(c1cc(-c2ccc(Cl)cc2)oc1C(F)(F)F)N1CCc2c([nH]c3ccccc23)C1c1ccc2c(c1)OCO2 (racemic) [Cmpd 105]
  % Inh @ 10 μM (rabbit): 40%

## Cc1cc(C(=O)N2CCc3c([nH]c4ccccc34)C2c2ccc3c(c2)OCO3)nn1-c1ccccc1 (racemic) [Cmpd 106]
  % Inh @ 10 μM (rabbit): 70%

## Cc1cc(C(=O)N2CCc3c([nH]c4ccccc34)C2c2ccc(OCCCN(C)C)cc2)nn1-c1ccccc1 (racemic) [Cmpd 107]
  % Inh @ 10 μM (rabbit): 15%

## O=C(c1ccc(Cl)nc1)N1CCc2c([nH]c3ccccc23)C1c1ccc2c(c1)OCO2 (racemic) [Cmpd 108]
  % Inh @ 10 μM (rabbit): 48%

## Cc1onc(-c2ccccc2)c1C(=O)N1CCc2c([nH]c3ccccc23)C1c1ccc(Cl)c(Cl)c1 (racemic) [Cmpd 109]
  % Inh @ 10 μM (rabbit): 31%

## COc1ccc(C2c3[nH]c4ccccc4c3CCN2C(=O)c2c(-c3ccccc3)noc2C)cc1OC (racemic) [Cmpd 110]
  % Inh @ 10 μM (rabbit): 32%

## Cc1ccc(C2c3[nH]c4ccccc4c3CCN2C(=O)c2c(-c3ccccc3)noc2C)cc1C (racemic) [Cmpd 111]
  % Inh @ 10 μM (rabbit): 35%

## Cc1onc(-c2ccccc2)c1C(=O)N1CCc2c([nH]c3ccccc23)C1c1ccc2c(c1)OCO2 (racemic) [Cmpd 112]
  % Inh @ 10 μM (rabbit): 33%

## Cc1cc(C)cc(C2c3[nH]c4ccccc4c3CCN2C(=O)c2c(-c3ccccc3)noc2C)c1 (racemic) [Cmpd 113]
  % Inh @ 10 μM (rabbit): 29%

## Cc1onc(-c2ccccc2)c1C(=O)N1CCc2c([nH]c3ccccc23)C1c1ccc(Cl)c(C(F)(F)F)c1 (racemic) [Cmpd 114]
  % Inh @ 10 μM (rabbit): 27%

## Cc1onc(-c2ccccc2)c1C(=O)N1CCc2c([nH]c3ccccc23)C1c1ccc(C#N)cc1 (racemic) [Cmpd 115]
  % Inh @ 10 μM (rabbit): 30%

## COC(=O)c1ccc(C2c3[nH]c4ccccc4c3CCN2C(=O)c2c(-c3ccccc3)noc2C)cc1 (racemic) [Cmpd 116]
  % Inh @ 10 μM (rabbit): 32%

## COc1ccc(C2c3[nH]c4ccccc4c3CCN2C(=O)c2c(-c3ccccc3)noc2C)cc1 (racemic) [Cmpd 117]
  % Inh @ 10 μM (rabbit): 32%

## Cc1onc(-c2ccccc2)c1C(=O)N1CCc2c([nH]c3ccccc23)C1c1ccc([N+](=O)[O-])cc1 (racemic) [Cmpd 118]
  % Inh @ 10 μM (rabbit): 28%

## Cc1ccc(C2c3[nH]c4ccccc4c3CCN2C(=O)c2cnn(-c3ccccc3)c2C(F)(F)F)cc1C (racemic) [Cmpd 119]
  % Inh @ 10 μM (rabbit): 28%

## O=C(c1cnn(-c2ccccc2)c1C(F)(F)F)N1CCc2c([nH]c3ccccc23)C1c1ccc(Cl)c(Cl)c1 (racemic) [Cmpd 120]
  % Inh @ 10 μM (rabbit): 18%

## COc1ccc(C2c3[nH]c4ccccc4c3CCN2C(=O)c2cnn(-c3ccccc3)c2C(F)(F)F)cc1OC (racemic) [Cmpd 121]
  % Inh @ 10 μM (rabbit): 10%

## CCCc1c(C(=O)N2CCc3c([nH]c4ccccc34)C2c2ccc3c(c2)OCO3)cnn1-c1ccccc1 (racemic) [Cmpd 122]
  % Inh @ 10 μM (rabbit): 65%

## CN(C)CCn1c2c(c3ccccc31)CCN(c1nc3ccccc3s1)C2c1ccc2c(c1)OCO2 (stereo not drawn) [Cmpd 2]
  % Inh @ 10 μM (rabbit): 43%

## c1ccc2sc(N3CCc4c([nH]c5ccccc45)C3c3ccc4c(c3)OCO4)nc2c1 (stereo not drawn) [Cmpd 3]
  % Inh @ 10 μM (rabbit): 84%

## CN(C)CCn1c2c(c3ccccc31)CCN(c1ncc(-c3ccc(Cl)cc3)cn1)C2c1ccc2c(c1)OCO2 (stereo not drawn) [Cmpd 4]
  % Inh @ 10 μM (rabbit): 94%

## COc1ccc(-c2cnc(N3CCc4c(n(CCN(C)C)c5ccccc45)C3c3ccc4c(c3)OCO4)nc2)cc1 (stereo not drawn) [Cmpd 6]
  % Inh @ 10 μM (rabbit): 95%

## CS(=O)(=O)c1ccc(-c2cnc(N3CCc4c([nH]c5ccccc45)C3c3ccc4c(c3)OCO4)nc2)c([N+](=O)[O-])c1 (stereo not drawn) [Cmpd 8]
  % Inh @ 10 μM (rabbit): 89%

## COc1ccc(-c2cnc(N3CCc4c([nH]c5ccccc45)C3c3ccc4c(c3)OCO4)nc2)cc1 (stereo not drawn) [Cmpd 9]
  % Inh @ 10 μM (rabbit): 80%

## Clc1ccc(-c2cnc(N3CCc4c([nH]c5ccccc45)C3c3ccc4c(c3)OCO4)nc2)cc1 (stereo not drawn) [Cmpd 10]
  % Inh @ 10 μM (rabbit): 79%

## FC(F)(F)c1ccc(Cl)c(-c2ccc(CN3CCc4c([nH]c5ccccc45)C3c3ccc4c(c3)OCO4)o2)c1 (stereo not drawn) [Cmpd 11]
  % Inh @ 10 μM (rabbit): 53%

## FC(F)(F)c1cccc(-c2ccc(CN3CCc4c([nH]c5ccccc45)C3c3ccc4c(c3)OCO4)o2)c1 (stereo not drawn) [Cmpd 12]
  % Inh @ 10 μM (rabbit): 76%

## CN(C)CCn1c2c(c3ccccc31)CCN(C(=O)c1cc3cc([N+](=O)[O-])ccc3o1)C2c1ccc2c(c1)OCO2 (stereo not drawn) [Cmpd 13]
  % Inh @ 10 μM (rabbit): 94%

## O=C(c1cc2cc([N+](=O)[O-])ccc2o1)N1CCc2c([nH]c3ccccc23)C1c1ccc2c(c1)OCO2 (stereo not drawn) [Cmpd 14]
  % Inh @ 10 μM (rabbit): 88%

## COc1ccc2cc(C(=O)N3CCc4c([nH]c5ccccc45)C3c3ccc4c(c3)OCO4)oc2c1 (stereo not drawn) [Cmpd 15]
  % Inh @ 10 μM (rabbit): 90%

## O=C(c1cc2ccccc2o1)N1CCc2c([nH]c3ccccc23)C1c1ccc2c(c1)OCO2 (stereo not drawn) [Cmpd 16]
  % Inh @ 10 μM (rabbit): 88%

## CN(C)CCn1c2c(c3ccccc31)CCN(C(=O)c1cc3ccccc3s1)C2c1ccc2c(c1)OCO2 (stereo not drawn) [Cmpd 17]
  % Inh @ 10 μM (rabbit): 88%

## O=C(c1cc2ccccc2s1)N1CCc2c([nH]c3ccccc23)C1c1ccc2c(c1)OCO2 (stereo not drawn) [Cmpd 18]
  % Inh @ 10 μM (rabbit): 87%

## O=C(c1ccc(-c2cccc([N+](=O)[O-])c2)o1)N1CCc2c(n(C(=O)c3ccc(-c4cccc([N+](=O)[O-])c4)o3)c3ccccc23)C1c1ccc2c(c1)OC(F)(F)O2 (stereo not drawn) [Cmpd 19]
  % Inh @ 10 μM (rabbit): 15%

## O=C(c1ccc(-c2cccc(C(F)(F)F)c2)o1)N1CCc2c(n(C(=O)c3ccc(-c4cccc(C(F)(F)F)c4)o3)c3ccccc23)C1c1ccc2c(c1)OC(F)(F)O2 (stereo not drawn) [Cmpd 20]
  % Inh @ 10 μM (rabbit): 4%

## O=C(c1ccc(-c2cccc([N+](=O)[O-])c2)o1)N1CCc2c([nH]c3ccccc23)C1c1ccc2c(c1)OC(F)(F)O2 (stereo not drawn) [Cmpd 21]
  % Inh @ 10 μM (rabbit): 32%

## O=C(c1ccc(-c2cccc(C(F)(F)F)c2)o1)N1CCc2c([nH]c3ccccc23)C1c1ccc2c(c1)OC(F)(F)O2 (stereo not drawn) [Cmpd 22]
  % Inh @ 10 μM (rabbit): 16%

## COC(=O)CCn1c2c(c3ccccc31)CCN(C(=O)c1ccc(-c3cccc(C(F)(F)F)c3)o1)C2c1ccc2c(c1)OCO2 (stereo not drawn) [Cmpd 23]
  % Inh @ 10 μM (rabbit): 30%

## COC(=O)Cn1c2c(c3ccccc31)CCN(C(=O)c1ccc(-c3cccc([N+](=O)[O-])c3)o1)C2c1ccc2c(c1)OCO2 (stereo not drawn) [Cmpd 24]
  % Inh @ 10 μM (rabbit): 40%

## COC(=O)Cn1c2c(c3ccccc31)CCN(C(=O)c1ccc(-c3cccc(C(F)(F)F)c3)o1)C2c1ccc2c(c1)OCO2 (stereo not drawn) [Cmpd 25]
  % Inh @ 10 μM (rabbit): 20%

## O=C(c1ccc(-c2cccc(C(F)(F)F)c2)o1)N1CCc2c(n(Cc3ccccn3)c3ccccc23)C1c1ccc2c(c1)OCO2 (stereo not drawn) [Cmpd 26]
  % Inh @ 10 μM (rabbit): 88%

## O=C(c1ccc(-c2cccc(C(F)(F)F)c2)o1)N1CCc2c(n(CCCCCl)c3ccccc23)C1c1ccc2c(c1)OCO2 (stereo not drawn) [Cmpd 27]
  % Inh @ 10 μM (rabbit): 56%

## O=C(c1ccc(-c2cccc(C(F)(F)F)c2)o1)N1CCc2c(n(CCN3CCOCC3)c3ccccc23)C1c1ccc2c(c1)OCO2 (stereo not drawn) [Cmpd 28]
  % Inh @ 10 μM (rabbit): 94%

## O=C(O)CCn1c2c(c3ccccc31)CCN(C(=O)c1ccc(-c3cccc(C(F)(F)F)c3)o1)C2c1ccc2c(c1)OCO2 (stereo not drawn) [Cmpd 29]
  % Inh @ 10 μM (rabbit): 79%
